# The supplement of paper PMC10307832
# What was measured:
# Assay in all cases: relative viability (nuclei count vs DMSO), 5 days (fraction); higher = more cells survive
# [1] = compound: CCn1c(-c2nonc2N)nc2cnc(Oc3cccc(NC(=O)c4ccc(OCCN5CCOCC5)cc4)c3)cc21 + CC(C)C[C@H](NC(=O)[C@H](Cc1ccccc1)NC(=O)c1cnccn1)B(O)O [Bortezomib] (partner 0.002 µM)
# In short: (§1)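 Lung cancer cell lines in 1536-well plates got either a single drug or a fixed anchor-drug dose together with five library-drug doses (not always all listed) in √10 steps, by pin tool, on the day after seeding. Nuclei were counted after 5 days, and relative viability is the treated-to-vehicle ratio of nuclei counts. Values are medians of duplicate plates.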
# [2] = compound: N=C1NC(=O)/C(=C/c2ccc(O)cc2)S1 [Mirin] + COc1cc2c(Oc3ccc(NC(=O)C4(C(=O)Nc5ccc(F)cc5)CC4)cc3F)ccnc2cc1OCCCN1CCOCC1 [Foretinib] (partner 0.25 µM)
# In short: as §1
# [3] = compound: N=C1NC(=O)/C(=C/c2ccc(O)cc2)S1 [Mirin] + CS(=O)(=O)CCNCc1ccc(-c2ccc3ncnc(Nc4ccc(OCc5cccc(F)c5)c(Cl)c4)c3c2)o1 [Lapatinib] (partner 2 µM)
# In short: as §1
# [4] = compound: N=C1NC(=O)/C(=C/c2ccc(O)cc2)S1 [Mirin] + C[C@@H](Oc1cc(-c2cnn(C3CCNCC3)c2)cnc1N)c1c(Cl)ccc(F)c1Cl [Crizotinib] (partner 1 µM)
# In short: as §1
Cell Line,relative viability ([1]; first compound 0.04 µM),relative viability ([1]; first compound 0.1265 µM),relative viability ([1]; first compound 0.4 µM),relative viability ([1]; first compound 1.265 µM),relative viability ([1]; first compound 4 µM),relative viability ([2]; first compound 0.25 µM),relative viability ([2]; first compound 0.7906 µM),relative viability ([2]; first compound 2.5 µM),relative viability ([2]; first compound 7.906 µM),relative viability ([2]; first compound 25 µM),relative viability ([3]; first compound 0.25 µM),relative viability ([3]; first compound 0.7906 µM),relative viability ([3]; first compound 2.5 µM),relative viability ([3]; first compound 7.906 µM),relative viability ([3]; first compound 25 µM),relative viability ([4]; first compound 0.25 µM),relative viability ([4]; first compound 0.7906 µM),relative viability ([4]; first compound 2.5 µM),relative viability ([4]; first compound 7.906 µM),relative viability ([4]; first compound 25 µM)
LU99A,1.03,0.97,0.86,0.783,0.589,0.71,0.631,0.795,0.71,0.566,1.05,0.79,0.888,0.809,0.749,0.526,0.463,0.499,0.499,0.37
201T,1.06,1.02,1.11,1.02,1.03,1.1,1.24,1.17,1.06,1.17,0.98,0.964,1.01,1.09,1.08,0.936,1.09,0.995,1.16,1.22
HCC-827,0.99,1.04,0.906,0.666,0.885,1.03,1.08,1.06,1.06,1.23,0.167,0.182,0.17,0.2,0.227,0.98,0.961,0.973,0.885,1.07
NCI-H1666,0.785,1.02,0.65,0.459,0.385,0.963,1.03,1.04,0.941,0.836,0.683,0.381,0.638,0.444,0.443,0.918,1.02,1.03,0.852,0.66
NCI-H1915,1.16,0.94,0.958,0.653,0.314,1.06,–,1.12,0.948,0.975,0.95,–,0.997,0.853,0.826,0.863,–,0.87,0.809,1.03
NCI-H2009,1.06,0.875,0.647,0.322,0.318,1.19,1.33,1.2,1.19,1.17,0.883,0.469,1.02,0.847,0.993,1.08,1.11,1.01,0.853,1.16
COR-L 105,0.734,0.625,0.519,0.319,0.319,1.06,0.865,1.25,1.17,0.781,0.346,0.274,0.392,0.367,0.306,0.781,0.996,0.714,0.855,0.697
NCI-H1975,0.244,0.263,0.227,0.177,0.165,0.934,0.914,0.98,0.919,0.973,1.12,0.785,0.883,1.02,0.757,0.974,1.02,0.93,0.954,0.943
Calu-6,1.03,0.922,0.771,0.5,0.469,0.902,1.03,0.918,0.903,0.865,1.11,1.12,1.06,1.01,0.983,0.745,0.833,0.767,0.781,0.781
NCI-H322M,1.2,1.26,1.22,1.58,1.55,1.06,1.02,1.07,0.934,1.05,0.569,0.831,0.929,0.683,0.705,0.797,1.04,0.874,0.905,0.756
NCI-H2405,1.05,0.744,0.348,0.277,0.973,1.04,1.04,1.01,1.03,1.07,1.11,1.12,1.02,1.05,1.22,0.835,0.584,0.878,0.816,0.793
HCC-78,0.465,0.53,0.494,0.605,0.705,0.538,0.636,0.535,0.615,0.584,0.921,0.761,0.837,0.774,0.552,0.362,0.381,0.371,0.386,0.41
COR-L23,1.08,0.646,0.238,0.185,0.193,1.07,1.14,0.879,1.01,1.05,0.796,1.08,0.907,0.999,0.914,0.69,0.828,0.75,0.556,0.617
NCI-H1993,1.09,1.16,–,0.882,1.02,0.716,–,0.821,0.76,0.824,0.856,0.784,0.887,0.976,0.81,0.757,0.82,0.845,0.926,0.788
NCI-H3122,1.05,1.01,0.93,0.691,0.738,0.919,0.906,0.934,1.08,1.09,1.04,1.02,1.05,1.05,1.18,0.247,0.256,0.266,0.229,0.247
